Measurements published in publication PMC10947197, “Acid‐Resistant BODIPY Amino Acids for Peptide‐Based Fluorescence Imaging of GPR54 Receptors in Pancreatic Islets” (Angewandte Chemie (International Ed. in English), 2023).

Test: Fluorogenic behavior in phosphatidylcholine liposome suspensions
Assay type: physicochemical
Settings: PBS vs phosphatidylcholine liposome suspensions; λexc 450 nm, λem 510 nm
Method: Figure 1 a) Chemical structure of the Fmoc‐protected Trp‐BODIPY PLUS amino acid for general peptide synthesis. b) Fluorescence emission spectra of Trp‐BODIPY PLUS (25 μM) in phosphate buffer saline (PBS) suspensions with increasing content of phosphatidylcholine liposomes. λ exc: 450 nm. Inset) UV‐irradiated pictograms of Trp‐BODIPY PLUS in hydrophilic (bottom) and hydrophobic (top) environments. c) Peptide sequences synthesized with Trp‐BODIPY and Trp‐BODIPY PLUS, their biological targets, solid supports, protected amino acids and purities after SPPS. RA: Rink Amide, TG: TentaGel, CTC: chlorotrityl, PS: polystyrene,^[a] not determined due to degradation of BODIPY. d) Synthetic scheme and structures of KP‐10 analogues with Trp‐BODIPY PLUS instead of the native Trp (peptide 7) or at the N‐terminal end (peptide 8).
BODIPY PLUS (10 µM) in phosph ate buffer salin e (PBS, white bars) an d phosp hat idy lcho lin e li posom e susp ensi ons (gr ey bars). λ exc: 45 0 nm; λem: 51 0 nm.
V alues pr es ent e d as m ea ns ±S E M ( n= 3) .
Tr p-BODIPY P LU S (-20 °C, solid)
Tr p-BODIPY P LU S (-20 °C, DMSO)
S u p p l emen t ary F i gu re 6 . HP LC tr ac es of T r p-B O DI P Y P LUS aft er 5 m ont hs st or age in t he f r eez er as po wder ( t op) and as 5 mM DMSO s olut i ons ( bot t om ). […]
Sp ectro sco p y mea su rem en ts. […]

Fluorogenic behavior (in words): strong fluorogenic behavior
SMILES: CC1=CC(C)=[N+]2C1=C(c1cccc(-c3[nH]c4ccccc4c3C[C@H](NC(=O)OCC3c4ccccc4-c4ccccc43)C(=O)O)c1)c1c(C)cc(C)n1[B-]2(C#N)C#N [Trp-BODIPY PLUS]
